# From PMC8752549, “Esc peptides as novel potentiators of defective cystic fibrosis transmembrane conductance regulator: an unprecedented property of antimicrobial peptides” (Cellular and Molecular Life Sciences: CMLS, 2021)
# Where no end group is shown, it is not given here. [ ]: non-standard residue; d: D form.
# Experiments:
# [1] = system: F508del-CFBE41o- and wt-CFBE41o- cells; assay type: cell-based
# Protocol: (§1) To evaluate the lung epithelia integrity, FRT and CFBE41o- cells expressing mutated or functional CFTR were seeded on permeable supports (24 Millicell plates PSHT01QR1) and incubated for 24 h in their standard culture medium in the presence of peptides, at different concentration. DMSO, 0.1% v:v, final concentration) that was used to solubilize each compound was included as control. After 24 h, the medium was replaced with saline solution containing (in mM): 130 NaCl, 2.7 KCl, 1.5 KH2PO4, 1 CaCl2, 0.5 MgCl2, 10 glucose, 10 Na-Hepes (pH, 7.4). Saline solution was added to both apical and basolateral compartments of the permeable supports. Samples were incubated for 10 min at 37 °C and TEER was measured in basal conditions without CFTR activation, with the epithelial voltmeter (MILLICELL ERS-2, Millipore Burlington, MA).
# [2] = system: F508del-FRT and wt-FRT cells; assay type: cell-based, Fischer rat
# Protocol: as §1
# [3] = system: null-FRT cells not expressing CFTR; experiment: Whole-cell patch-clamp, null-FRT cells; assay type: cell-based, Fischer rat; details: untransfected FRT, 20 µM FSK + 10 µM Esc peptides or GEN, n ≥ 3
# Protocol: For whole-cell experiments the extracellular (bath) solution contained (in mM): 150 NaCl, 1 CaCl2, 1 MgCl2, 10 glucose, 10 mannitol, 10 Na-HEPES (pH 7.4). The pipette (intracellular) solution contained (in mM): 120 CsCl, 10 TEA-Cl, 0.5 EGTA, 1 MgCl2, 10 Cs-HEPES, 40 mannitol, 1 ATP. To activate CFTR, 20 µM FSK was added to the extracellular solution to phosphorylate the channel. In some samples the combination FSK + 50 µM GEN (positive control) as well as FSK + 10 µM peptides were added to the extracellular solution to test their potentiator activity.
# For both patch configurations, the protocol to correlate current intensity and voltage for stimulation consisted of 500-ms voltage steps from -100 to + 100 mV or from -80 to + 120 mV in 20 mV increments, starting from a holding potential of -60 mV. The time-dependence of CFTR activation and inactivation was monitored by application of steps of 50 ms pulses to − 100, − 50, 0, 50 and 100 mV every 5 s from a holding potential of − 60 mV. The interval between steps was 4 s. Membrane currents were filtered at 1 kHz and digitized at 5 kHz by a low–pass 4–pole Bessel filter. […]
# Whole-cell membrane currents were recorded in null FRT cells not expressing CFTR by using the same experimental solutions and stimulation protocols as described in the main text for F508del- FRT.
# [4] = ivacaftor-based treatment of patients; cited from earlier work
# Text: Many proof-of-concept studies have disclosed that chemically modified ATP analogs and small organic molecules (e.g., isoflavones) have good potentiation effect by enhancing CFTR channel gating. However, the expected unspecific binding of ATP analogs to other proteins implicated in physiological functions limits the development of these molecules to the clinic. Other compounds capable of improving the activity of mutant CFTR can promote its phosphorylation by inhibiting phosphodiesterase’s activity, to heighten the intracellular level of cAMP. Ivacaftor was the first CFTR potentiator approved f ...
# F508del-CFTR [5] = experiment: Inside-out patch-clamp (macro-patches), F508del-FRT cells; assay type: biochemical; details: 1 mM ATP + 125 nM PKA catalytic subunit + 10 µM peptide in intracellular bath, n ≥ 3
# Protocol: Whole-cell and inside-out membrane currents were recorded in FRT cells stably expressing F508del CFTR after incubation with 1 µM of the corrector VX-809 for 24 h to increase mutated CFTR membrane expression.
# For inside-out patch-clamp experiments, the pipette solution contained (in mM): 150 N-methyl-D-glucamine chloride (NMDG-Cl), 3 CaCl2, 2 MgCl2, 10 Na-Hepes (pH 7.3). The bath solution for these experiments contained (in mM): 150 NMDG-Cl, 2 MgCl2, 10 EGTA, 10 Na-Hepes, 1 ATP, which was supplemented with 125 nM catalytic subunit of PKA (Promega, […]) and peptides at 10 µM. Pipette electrical resistance for both whole-cell and inside-out experiments was 3–5 MΩ.
# For both patch configurations, the protocol to correlate current intensity and voltage for stimulation consisted of 500-ms voltage steps from -100 to + 100 mV or from -80 to + 120 mV in 20 mV increments, starting from a holding potential of -60 mV. The time-dependence of CFTR activation and inactivation was monitored by application of steps of 50 ms pulses to − 100, − 50, 0, 50 and 100 mV every 5 s from a holding potential of − 60 mV. The interval between steps was 4 s. Membrane currents were filtered at 1 kHz and digitized at 5 kHz by a low–pass 4–pole Bessel filter.
# F508del-CFTR [6] = experiment: CFTR-mediated transepithelial conductance (TEER), F508del-FRT; assay type: cell-based; details: F508del-FRT pre-incubated 24 h with 1 µM VX-809; 10 µM peptide + 20 µM FSK, 10 min; inhibition with 30 µM PPQ102; n ≥ 6
# Protocol: To evaluate CFTR activation, the same saline solution was used. Cells expressing F508del mutation were incubated with 1 µM VX-809 to favor the mutant protein rescue. After measurement of basal TEER, 20 µM FSK + 10 µM GEN as positive control, or FSK + peptides at the desired concentration were added on the epithelium apical side. Finally, 30 µM PPQ102 was added on the epithelium apical side to block CFTR, so to measure the own activity of CFTR. TEER measurement was performed at 37 °C after 10 min from the addition of each compound. From the values of TEER measured before and after CFTR inhibition, we calculated the CFTR-dependent TEER for each condition. All values of TEER were converted to transepithelial conductance (TEEC) using the formula TEEC = 1/TEER [67].
# [7] = cited from earlier work
# Text: (§2) During the last years, several studies have been conducted to identify compounds with suitable antibacterial properties. Antimicrobial peptides (AMPs) are a promising and effective therapeutic resource. Indeed, they rapidly kill microbial pathogens by perturbing their plasma-membrane thus limiting the induction of bacterial resistance compared to conventional antibiotics. In our laboratory, we identified a frog-skin derived membrane-active cationic AMP, i.e., Esc(1–21) […]-NH2 [24], with biocidal activity against the planktonic and the biofilm forms of P ...
# wt-CFBE and F508del-CFBE = details: monolayers of wt-CFBE and F508del-CFBE; cited from earlier work
# Text: as §2
# [8] = system: P. aeruginosa pulmonary infection; details: cited from earlier work
# Text: as §2
molecule,measurement,setting,value
Gly-Ile-Phe-Ser-Lys-Leu-Ala-Gly-Lys-Lys-Ile-Lys-Asn-Leu-Leu-Ile-Ser-Gly-Leu-Lys-Gly- NH2 [Esc(1–21)],change of TEER / transepithelial conductance (G) versus DMSO control,[1],do not alter
same,change of TEER / transepithelial conductance (G) versus DMSO control,[2],do not alter
"O=c1c(-c2ccc(O)cc2)coc2cc(O)cc(O)c12 [GEN, genistein]",change of ion current,[3],no significant change
"CC(C)(C)c1cc(C(C)(C)C)c(NC(=O)c2c[nH]c3ccccc3c2=O)cc1O [VX-770, ivacaftor]",enhanced lung function,[4],10%
"Gly-Ile-Phe-Ser-Lys-Leu-Ala-Gly-Lys-Lys-Ile-Lys-Asn- DLeu -Leu-Ile-DphosphoSer-Gly-Leu-Lys-Gly-NH2 [[DLeu^14, DphosphoSer^17]Esc, Esc analog with DLeu14 and D-phosphoSer at position 17]",current intensity at + 100 mV compared to control basal conditions,F508del-CFTR [5],~ 2.5 fold
same,CFTR-mediated conductance (ΔG) compared to FSK-treated samples,F508del-CFTR [6],about twofold
"GIFSKLAGKKIKN[dL]LI[dS]GLKG-NH2 [Esc(1–21)-1c, diastereomer of Esc(1–21) carrying D-Leu14 and D-Ser17]",change of TEER / transepithelial conductance (G) versus DMSO control,[1],do not alter
same,susceptibility to proteolytic degradation compared with Esc(1–21),[7],less susceptible
same,promotion of re-epithelialization compared with Esc(1–21),wt-CFBE and F508del-CFBE,more efficient
same,toxicity or inflammatory side events,[8],without eliciting toxicity or inflammatory side events
same,effectiveness in contrasting P. aeruginosa pulmonary infection,[8]; mice,higher effectiveness than the all-L counterpart
same,CFTR-mediated conductance (ΔG) compared to FSK-treated samples,F508del-CFTR [6],slightly more pronounced
same,change of TEER / transepithelial conductance (G) versus DMSO control,[2],do not alter
